Literature values, collected in patent US10647965B2, “Hetero-transglycosylase and uses thereof” (BASF SE, priority 2013, dated 2020).

System: XTHs (xyloglucan endotransglucosylases)
Conditions: read-out: KM for XXXGol, comparison value, donor not stated

- Km: 50 to 200 µM
Structure (SMILES): OC[C@@H](O)[C@@H](O[C@@H]1O[C@H](CO[C@H]2OC[C@@H](O)[C@H](O)[C@H]2O)[C@@H](O[C@@H]2O[C@H](CO[C@H]3OC[C@@H](O)[C@H](O)[C@H]3O)[C@@H](O[C@@H]3O[C@H](CO[C@H]4OC[C@@H](O)[C@H](O)[C@H]4O)[C@@H](O)[C@H](O)[C@H]3O)[C@H](O)[C@H]2O)[C@H](O)[C@H]1O)[C@H](O)[C@@H](O)CO [XXXGol, Xyl3.Glc3.glucitol]
